According to ChEMBL document CHEMBL3112502, “The insulin secretory action of novel polycyclic guanidines: discovery through open innovation phenotypic screening, and exploration of structure-activity relationships” (Bioorg Med Chem Lett, 2014):
Calls of active or inactive are those of the source. The rule behind the calls is not given here.

Assays:
INS-1E = assay: (§1) Stimulation of insulin secretion in rat INS-1E cells after 1 hr by alphaLISA assay in presence of 0.1 mM glucose; type: functional, cell-based
[1] = Stimulation of insulin secretion in rat INS-1E cells after 1 hr by alphaLISA assay in presence of 5 mM glucose relative to IBMX; type: functional
[2] = Stimulation of insulin secretion in rat INS-1E cells after 1 hr by alphaLISA assay in presence of 5 mM glucose; type: functional, cell-based
[3] = Stimulation of insulin secretion in rat INS-1E cells after 1 hr by alphaLISA assay in presence of 0.1 mM glucose relative to IBMX; type: functional
[4] = as §1; type: functional, cell-based
Pancreatic islet [5] = assay: Stimulation of insulin secretion in rat pancreatic islets in presence of 11 mM glucose; type: functional
Pancreatic islet [6] = assay: Stimulation of insulin secretion in rat pancreatic islets at 3 uM in presence of 11 mM glucose; type: functional
Pancreatic islet [7] = assay: Stimulation of insulin secretion in rat pancreatic islets at 3 uM in presence of 3 mM glucose; type: functional

Compound	EC50 [2] [µM]	Activity (INS-1E)	Emax [1] [%]	also measured
CCC[C@H]1CC[C@@H]2C[C@H](c3ccccc3)NC(=N)N12	11.1	inactive	55	
CC(=O)Nc1ccc([C@H]2C[C@H]3CC[C@H](CCc4ccccc4)N3C(=N)N2)cc1	> 33	inactive		
N=C1N[C@@H](c2ccccc2)C[C@H]2CCCN12 (mixture of isomers)	> 33	inactive		
N=C(NCc1ccccc1)N1CCCC1CCc1ccccc1 (centres undefined)	2.47	inactive	84	
CC(C)(C)OC(=O)/N=C1\N[C@@H](c2ccccc2)C[C@H]2CC[C@H](CCc3ccccc3)N12	> 33	inactive		
C/C=C/[C@H]1C[C@H]2CC[C@H](CCc3ccccc3)N2C(=N)N1	1.45		21	EC50 [4]: > 33 µM
Cn1cc(CC[C@H]2CC[C@@H]3C[C@H](c4ccccc4)NC(=N)N23)cn1	> 33	inactive		
N=C1N[C@@H](c2ccccc2)C[C@H]2CC[C@H](c3ccc(-c4ccccc4)cc3)N12	> 33	inactive		
N=C(N)N1C(Sc2ccccc2)CCC1c1ccccc1 (mixture of isomers)	5.03	inactive	54	
N=C(N)N1C(CCc2ccccc2)CCC1Cc1ccccc1 (mixture of isomers)	5.74	inactive	56	
C[C@@H]1[C@H]2CC[C@H](CCc3ccccc3)N2C(=N)N[C@H]1c1ccccc1	1.3		27	Activity (Pancreatic islet [5]): Active; EC50 [4]: > 33 µM
Cc1cc(C)c(Nc2ccccc2CC[C@H]2CC[C@@H]3C[C@H](c4ccccc4)NC(=N)N23)c(C)c1	1.37	inactive	54	
N=C(N)N1C(CCc2ccccc2)CCC1Sc1ccccc1 (centres undefined)	1.33	inactive	62	
N=C1N[C@H](c2ccccc2)C[C@H]2CC[C@H](CCc3ccccc3)N12	2.74		21	
N=C1N[C@@H](c2ccccc2)C[C@H]2CC[C@H](Cc3ccccc3)N12	4.74	inactive	52	
Cc1cc(C)c(Nc2cccc(CC[C@H]3CC[C@@H]4C[C@H](c5ccccc5)NC(=N)N34)c2)c(C)c1	> 33	inactive		
O=C1N[C@@H](c2ccccc2)C[C@H]2CC[C@H](CCc3ccccc3)N12	> 33	inactive		
N=C1N[C@@H](c2ccc(C(=O)O)cc2)C[C@H]2CC[C@H](CCc3ccccc3)N12	> 33	inactive		
N=C1N[C@@H](c2ccccc2)C[C@H]2CC[C@H](COc3ccccc3)N12	> 33	inactive		
Cc1cc(C)c(Nc2ccc(CC[C@H]3CC[C@@H]4C[C@H](c5ccccc5)NC(=N)N34)cc2)c(C)c1	> 33	inactive		
N=C1NCC[C@H]2CC[C@H](CCc3ccccc3)N12	> 33	inactive		
N=C1N[C@@H](c2ccccc2)C[C@H]2CC[C@H](CCc3ccncc3)N12	> 33	inactive		
N=C1N[C@@H](c2ccccc2)C[C@H]2CC[C@H](c3ccccc3)N12	> 33	inactive		
N=C1N[C@@H](c2ccc(C(F)(F)F)cc2)C[C@H]2CC[C@H](CCc3ccccc3)N12	> 33	inactive		
N=C(N)N1C(CCc2ccccc2)CCC1CCc1ccccc1 (mixture of isomers)	4.87	inactive	29	
N=C1N[C@@H](c2ccc(F)cc2)C[C@H]2CC[C@H](CCc3ccccc3)N12	4.04	inactive	26	
N=C1NC(c2ccccc2)CCN1CCCc1ccccc1 (centres undefined)	4.79	inactive	39	

Molecules with a lower EC50 [2], results first:

EC50 [2] [µM]	Compound	Activity (INS-1E)	Emax [1] [%]	also measured
1.25	N=C1N[C@@H](c2ccccc2)C[C@H]2CC[C@H](CCc3ccccc3)N12		34	EC50 [4]: > 33 µM
1.1	Cc1cccc([C@H]2C[C@H]3CC[C@H](CCc4ccccc4)N3C(=N)N2)c1 (mixture of isomers)	inactive	20	
1.01	Cc1ccccc1[C@H]1C[C@H]2CC[C@H](CCc3ccccc3)N2C(=N)N1	inactive	59	Activity (Pancreatic islet [6]): Active; Activity (Pancreatic islet [7]): inactive
1.01	N=C1N[C@@H](c2cccc(Br)c2)C[C@H]2CC[C@H](CCc3ccccc3)N12	inactive	22	
1	Cc1ccc([C@H]2C[C@H]3CC[C@H](CCc4ccccc4)N3C(=N)N2)cc1 (mixture of isomers)	inactive	40	
0.83	N=C1N[C@@H](c2ccccc2)C[C@H]2CC[C@H](CCCc3ccccc3)N12 (mixture of isomers)	inactive	31	
0.76	COc1cccc([C@H]2C[C@H]3CC[C@H](CCc4ccccc4)N3C(=N)N2)c1 (mixture of isomers)	inactive	21	
0.75	N=C1N[C@@H](C2CCCCC2)C[C@H]2CC[C@H](CCc3ccccc3)N12	inactive	40	
0.67	CN1C(=N)N2[C@@H](CCc3ccccc3)CC[C@@H]2C[C@@H]1c1ccccc1	inactive	29	
0.67	N=C1N[C@@H](c2ccccc2Br)C[C@H]2CC[C@H](CCc3ccccc3)N12 (mixture of isomers)	inactive	52	
0.63	N=C1N[C@@H](c2ccc(Br)cc2)C[C@H]2CC[C@H](CCc3ccccc3)N12	inactive	23	
0.45	N=C1N[C@@H](c2ccccc2)C[C@H]2CC[C@H](CCc3cccc(Br)c3)N12	inactive	26	
0.003	COc1ccc(Cl)cc1C(=O)NCCc1ccc(S(=O)(=O)NC(=O)NC2CCCCC2)cc1 [GLYBURIDE]		50	Emax [3]: 17%; EC50 [4]: 0.007 µM
